Measurements as given in the supplement of paper PMC10307832.

How the values were obtained:
Assay in all cases: relative viability (nuclei count vs DMSO), 5 days (fraction); higher = more cells survive
[1] = compound: C1CNCCC1C2=CC(=NN2)C3=CC=NC=C3 + Cc1nc(Nc2ncc(C(=O)Nc3c(C)cccc3Cl)s2)cc(N2CCN(CCO)CC2)n1 [Dasatinib] (partner 0.075 µM)
Summary of the method: (§1)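 Medians of duplicate plates are given as relative viability. That measure is the nuclei count in treated wells divided by the count in vehicle wells. Counts were taken on 4× images of lung cancer cell lines in 1536-well plates, 5 days after pin-tool dosing the day after seeding with one drug alone or a fixed anchor-drug dose plus five library-drug doses (not always all listed) in √10 steps.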

[2] = compound: O[C@H]1CC[C@H](Nc2ncc3nc(Nc4c(F)cc(F)cc4F)n([C@H]4CCOC4)c3n2)CC1 [Tanzisertib] + CCNC(=O)c1noc(-c2cc(C(C)C)c(O)cc2O)c1-c1ccc(CN2CCOCC2)cc1 [Luminespib] (partner 0.01 µM)
Summary of the method: as §1

[3] = compound: C[C@@H](N)c1ccc(C(=O)Nc2ccnc3[nH]ccc23)cc1 + CS(=O)(=O)N1CCN(Cc2cc3nc(-c4cccc5[nH]ncc45)nc(N4CCOCC4)c3s2)CC1 [Pictilisib] (partner 1 µM)
Summary of the method: as §1

[4] = compound: O[C@H]1CC[C@H](Nc2ncc3nc(Nc4c(F)cc(F)cc4F)n([C@H]4CCOC4)c3n2)CC1 [Tanzisertib] + CS(=O)(=O)CCNCc1ccc(-c2ccc3ncnc(Nc4ccc(OCc5cccc(F)c5)c(Cl)c4)c3c2)o1 [Lapatinib] (partner 2 µM)
Summary of the method: as §1

Cell Line | relative viability ([1]; first compound 0.08 µM) | relative viability ([1]; first compound 0.8 µM) | relative viability ([1]; first compound 2.53 µM) | relative viability ([1]; first compound 8 µM) | relative viability ([2]; first compound 0.08 µM) | relative viability ([2]; first compound 0.253 µM) | relative viability ([2]; first compound 0.8 µM) | relative viability ([2]; first compound 2.53 µM) | relative viability ([2]; first compound 8 µM) | relative viability ([3]; first compound 0.04 µM) | relative viability ([3]; first compound 0.1265 µM) | relative viability ([3]; first compound 0.4 µM) | relative viability ([3]; first compound 4 µM) | relative viability ([4]; first compound 0.08 µM) | relative viability ([4]; first compound 0.253 µM) | relative viability ([4]; first compound 0.8 µM) | relative viability ([4]; first compound 2.53 µM) | relative viability ([4]; first compound 8 µM) | relative viability ([3]; first compound 1.265 µM)
SW 900 | 0.568 | 0.445 | 0.519 | 0.452 | 0.169 | 0.188 | 0.151 | 0.207 | 0.168 |  |  |  |  |  |  |  |  |  | 
NCI-H1944 | 0.201 | 0.206 | 0.231 | 0.232 | 0.858 | 0.84 | 0.749 | 0.658 | 0.73 | 0.398 | 0.339 | 0.337 | 0.345 | 0.949 | 0.935 | 0.862 | 0.873 | 0.796 | 
NCI-H727 | 0.489 | 0.5 | 0.33 | 0.328 | 0.365 | 0.345 | 0.339 | 0.375 | 0.728 | 0.63 | 0.466 | 0.785 | 0.683 | 0.934 | 0.872 | 0.952 | 0.988 | 0.842 | 0.223
NCI-H1650 | 0.262 | 0.257 | 0.356 | 0.35 | 0.233 | 0.215 | 0.206 | 0.2 | 0.196 | 0.672 | 0.584 | 0.595 | 0.586 | 0.958 | 0.759 | 0.838 | 0.842 | 0.331 | 0.318
HCC-827 | 0.366 | 0.228 | 0.302 | 0.308 | 0.668 | 0.594 | 0.642 | 0.588 | 0.259 | 1.22 | 1.27 | 1.12 | 0.783 | 0.19 | 0.186 | 0.201 | 0.24 | 0.183 | 0.978
HCC-366 | 0.405 | 0.898 | 0.618 | 0.594 |  |  |  |  |  | 0.113 | 0.137 | 0.163 | 0.0875 | 0.985 | 1.06 | 1.1 | 1.07 | 1.03 | 0.132
HARA | 0.217 | 0.3 | 0.196 | 0.187 | 0.856 | 0.907 | 1.06 | 0.79 | 0.686 | 0.634 | 0.517 | 0.432 | 0.292 | 0.889 | 0.809 | 0.81 | 0.797 | 0.771 | 0.475
NCI-H322M | 0.24 | 0.228 | 0.247 | 0.282 | 0.834 | 0.751 | 0.87 | 0.932 | 0.951 | 0.681 | 0.536 | 0.561 | 0.731 | 0.621 | 0.61 | 0.567 | 0.626 | 0.571 | 
LXF-289 | 0.267 | 0.184 | 0.228 | 0.185 | 0.66 | 0.621 | 0.684 | 0.675 | 0.643 | 0.943 | 0.779 | 0.928 | 0.683 | 0.99 | 0.883 | 0.983 | 0.926 | 0.977 | 0.872
PC-3 [JPC-3] | 0.982 | 1.1 | 1.01 | 0.966 | 0.621 | 0.758 | 0.693 | 0.662 | 0.6 | 0.741 | 0.784 | 0.788 | 0.683 | 0.466 | 0.406 | 0.494 | 0.422 | 0.494 | 0.632
CAL-12T | 0.49 | 0.49 | 0.625 | 0.475 | 0.383 | 0.409 | 0.376 | 0.731 | 0.247 | 0.544 | 0.76 | 0.66 | 0.437 | 0.635 | 0.617 | 0.795 | 0.762 | 0.72 | 
COR-L 105 | 0.332 | 0.364 | 0.382 | 0.368 | 0.795 | 0.754 | 0.651 | 0.986 | 0.69 | 0.435 | 0.297 | 0.399 | 0.309 | 0.379 | 0.355 | 0.353 | 0.332 | 0.275 | 0.255
NCI-H2347 | 0.352 | 0.288 | 0.307 | 0.332 | 0.494 |  | 0.581 | 0.571 | 0.511 | 0.472 | 0.667 | 0.727 | 0.796 | 1.05 | 1.01 | 0.971 | 1.07 | 0.869 | 0.832
NCI-H2126 | 0.504 | 0.613 | 0.655 | 0.661 | 0.919 | 0.897 | 0.887 | 0.961 | 0.993 | 0.632 | 0.494 | 0.55 | 0.6 | 0.772 | 0.807 | 0.82 | 0.694 | 0.724 | 0.349
NCI-H838 | 0.308 | 0.295 | 0.277 | 0.3 | 0.293 | 0.34 | 0.277 | 0.248 | 0.209 | 0.402 | 0.421 | 0.335 | 0.317 | 1.22 | 0.993 | 1.04 | 0.998 | 0.958 | 0.31
A549 |  |  |  |  |  |  |  |  |  | 0.596 | 0.526 | 0.597 | 0.428 | 1.04 | 0.92 | 0.921 | 1.05 | 1.07 | 0.525
NCI-H2342 | 0.343 | 0.268 | 0.357 | 0.41 | 0.688 | 0.828 | 0.975 | 0.759 | 0.888 |  |  |  |  |  |  |  |  |  | 
NCI-H1623 | 0.574 | 0.38 | 0.557 | 0.563 | 0.617 | 0.443 | 0.484 | 0.502 | 0.624 |  |  |  |  |  |  |  |  |  | 
SK-LU-1 | 0.156 | 0.181 | 0.206 | 0.166 | 0.229 | 0.231 | 0.189 | 0.181 | 0.18 | 0.589 | 0.621 | 0.549 | 0.544 | 1.1 | 0.869 | 0.855 | 0.994 | 0.816 | 0.608
